Assay results taken from patent publication US7465582B1, “Nurr-1 induction of a dopaminergic neuronal fate in a neural stem cell or neural progenitor cell in vitro” (Neuro Therapeutics AB, priority 2000, dated 2008).

Experiments:
[1] = tested on: Nurr1 over-expressing C17.2 clones; assay: Treatment of Nurr1 clones with trophic factors, mitogens, cytokines and other agents; TH immunoreactivity; type: cell-based, mouse; settings: Nurr1 clones without co-culture; factors alone or combined
From the text: C17.2 cells were cotransfected with a CMX-Nurr1 expression vector (Perlmann, T. et al. Genes Dev. 9, 769-782 (1995)) and PGK-puromycin resistance plasmids (Nurr1 clones) or a PGK-puromycin alone (mock clones). For reporter assays, C17.2 parental cells were transfected with the Nurr1 expression vector, the reporter plasmid (NGFIB-binding response element (NBRE) triplet upstream of TK minimal promoter fused to firefly luciferase) and a pRSV-alkaline phosphatase plasmid at a 2:1:2 ratio.
(§1) C17.2 neural stem cells (Snyder, E. Y. et al. Cell 68, 33-51 (1992)) were maintained and passaged as previously described (Snyder, E. Y. et al. Cell 68, 33-51 (1992)). Ventral mesencephala from E16 rat embryos were dissected, mechanically dissociated and plated at a final density of 1×10^5 cells/cm^2 on poly-D-lysine coated culture wells in a defined, serum-free medium (N^2, consisting of a 1:1 mixture of F12 and DMEM containing insulin (10 ng/ml), transferrin (100 μg/ml), putrescine (100 μM), progesterone (20 nM), selenium (30 nM) glucose (6 mg/ml), and bovine serum albumin (1 mg/ml)). After 24 hours in vitro, co-cultures were initiated by directly plating 2.5−5×10^4 C17.2-derived cells into the primary cultures; all ages of cultures given use this point as 0 DIV. […] Purified Type 1 astrocytes were obtained from mixed glial cultures derived from various regions of P1 rats according to a standard protocol (McCarthy, K. D. et al. J. Cell Biol. 85, 890-902 (1980)). After replating into 6- or 12-well plates, astrocytes were grown to confluency in serum-containing media and changed to N2 medium. After 3-5 DIV, co-cultures were initiated in fresh N2 as described above. All factors were added once, at the initiation of co-culture (concentrations are noted in the Results and Discussion), with the exception of 5-bromodeoxyuridine (BrdU), which was added 4-6 hours prior to fixation. Cultures were maintained in a humidified 5% CO2, 95% air incubator at 37 C and fixed after given time periods with 4% paraformaldehyde for 45 minutes for immunocytochemical analysis.
Fixed cultures were incubated with one of the following antibodies, diluted appropriately in phosphate-buffered saline (PBS) containing 1% bovine serum albumin and 0.3% Triton-X 100: mouse anti-BrdU, 1:50 (DAKO, Denmark), mouse anti-β-tubulin, Type III (TuJ1), 1:250 (Sigma), mouse anti-TH, 1:1000 (Incstar, USA), rabbit anti-β-galactosidase, 1:250 (Cappel, USA) rabbit anti-GFAP, 1:500 (DAKO, Denmark), rabbit anti-AHD-2, 1:4000. Incubations were either carried out at 4° C. overnight, or at room temperature for 1 hour. […] After washing, cultures were incubated for 1-3 hr with appropriate secondary antibodies (biotinylated horse-anti-mouse IgG or goat-anti-rabbit IgG, Vector, USA), 1:100, in the same dilution buffer. Immunostaining was visualized with the Vector Laboratory ABC immunoperoxidase kit, using either AEC (red) or SG (grey) substrates. […] Quantitative immunocytochemical data represent means and standard errors from 100-500 cells counted in each of 3-6 separate wells from 2-4 experiments. For quantitation of TH expression in co-cultures of primary and C-17.2-derived cells, TH was visualized with the brightfield AEC substrate, while β-gal was assessed using FITC, thus all data expressed as “% TH+” represents the number of TH+/β-gal+divided by total β-gal positive cells.

parental C17.2 cells = assay: Co-culture of parental C17.2 cells with primary E16 ventral mesencephalic cells; TH expression; type: cell-based, mouse; settings: parental C17.2 cells in co-culture; SR11237 to 1 μM, bFGF to 10 ng/ml
Procedure: (§2) C17.2 neural stem cells (Snyder, E. Y. et al. Cell 68, 33-51 (1992)) were maintained and passaged as previously described (Snyder, E. Y. et al. Cell 68, 33-51 (1992)). Ventral mesencephala from E16 rat embryos were dissected, mechanically dissociated and plated at a final density of 1×10^5 cells/cm^2 on poly-D-lysine coated culture wells in a defined, serum-free medium (N^2, consisting of a 1:1 mixture of F12 and DMEM containing insulin (10 ng/ml), transferrin (100 μg/ml), putrescine (100 μM), progesterone (20 nM), selenium (30 nM) glucose (6 mg/ml), and bovine serum albumin (1 mg/ml)). After 24 hours in vitro, co-cultures were initiated by directly plating 2.5−5×10^4 C17.2-derived cells into the primary cultures; all ages of cultures given use this point as 0 DIV. […]
(§3) Fixed cultures were incubated with one of the following antibodies, diluted appropriately in phosphate-buffered saline (PBS) containing 1% bovine serum albumin and 0.3% Triton-X 100: mouse anti-BrdU, 1:50 (DAKO, Denmark), mouse anti-β-tubulin, Type III (TuJ1), 1:250 (Sigma), mouse anti-TH, 1:1000 (Incstar, USA), rabbit anti-β-galactosidase, 1:250 (Cappel, USA) rabbit anti-GFAP, 1:500 (DAKO, Denmark), rabbit anti-AHD-2, 1:4000. […] Quantitative immunocytochemical data represent means and standard errors from 100-500 cells counted in each of 3-6 separate wells from 2-4 experiments. […]

RXR retinoid receptors = settings: Lehmann et al. 1992; cited from earlier work
Nurr1-C17.2 clone 42 = assay: Co-culture of Nurr1-C17.2 clone 42 with primary E16 ventral mesencephalic cells; TH expression; type: cell-based, mouse; settings: clone 42 with primary VM cells
Procedure: as §2, §3

C17.2 clonal lines = assay: Baseline proliferation of clonal lines after extended factor treatment in serum-free medium; type: cell-based, mouse; settings: after extended treatment with the factor in serum-free medium; most clonal lines
Procedure: as §1, with “Cultures were maintained in a humidified 5% CO2, 95% air incubator at 37 C and fixed after given time periods with 4% paraformaldehyde for 45 minutes for immunocytochemical analysis.” left out

C17.2 cells = settings: Kitchens et al. 1994; cited from earlier work
Nurr1 clones = assay: bFGF pretreatment of Nurr1 clones before co-culture with primary ventral mesencephalic cultures; BrdU labeling and TH expression; type: cell-based, mouse; settings: bFGF pretreatment 5 DIV
Procedure: as §2, §3

[2] = tested on: Nurr1-c42-derived dopaminergic neurons; assay: Response of TH positive c42 cells in co-culture to neurotrophic factors; type: cell-based, mouse; settings: 9 DIV, after SR11237 and bFGF induction; compared to N2 control; NT-3 30 ng/ml
Procedure: as §2, §3

## sonic hedgehog
[1]
  induction of TH expression: None of these factors induced TH expression in any of the clones

## CC1(C)CCC(C)(C)c2cc(C3(c4ccc(C(=O)O)cc4)OCCO3)ccc21 [SR11237, reference compound]
Parental C17.2 cells
  induction of TH expression: did not induce expression of TH
RXR retinoid receptors
  stimulation of RXR retinoid receptors: specifically stimulates RXR retinoid receptors

## CC1=C(/C=C/C(C)=C/C=C/C(C)=C/C(=O)O)C(C)(C)CCC1 [all-trans retinoic acid, reference compound]
Nurr1-C17.2 clone 42
  effect on TH expression in co-culture (in words): without effect

## NCCc1ccc(O)c(O)c1 [dopamine]
[1]
  induction of TH expression: None of these factors induced TH expression in any of the clones

## EGF: epidermal growth factor, mitogen (NSDSECPLSHDGYCLHDGVCMYIEALDKYACNCVVGYIGERCQYRDLKWWELR; Epidermal growth factor; UniProt P01133 971-1023, looked up)
[1]
  induction of TH expression: None of these factors induced TH expression in any of the clones
Nurr1-C17.2 clone 42
  effect on TH expression in co-culture (in words): effects of bFGF could be substituted by EGF
C17.2 clonal lines
  baseline proliferation after passage into SFM alone: remained unexpectedly elevated
C17.2 cells
  mitogenic effect: directly mitogenic

## bFGF: basic fibroblast growth factor, mitogen
[1]
  induction of TH expression: None of these factors induced TH expression in any of the clones
Parental C17.2 cells
  induction of TH expression: did not induce expression of TH
Nurr1 clones; co-culture 9 DIV, highest value, clone 42
  % TH+ cells after co-culture: ≤ 45%
Nurr1 clones; 24 hours after passage into co-culture, versus cells split directly out of serum-containing medium
  BrdU labeling of pretreated Nurr1 clones: increased
C17.2 clonal lines
  baseline proliferation after passage into SFM alone: remained unexpectedly elevated
[2]
  number of TH+ cells in the culture: dramatically increased the number of TH+ cells
C17.2 cells
  mitogenic effect: directly mitogenic

## insulin-like growth factor
[1]
  induction of TH expression: None of these factors induced TH expression in any of the clones
